# Data reported in ChEMBL document CHEMBL5357036, “Latest developments in coumarin-based anticancer agents: mechanism of action and structure-activity relationship studies” (RSC Med Chem, 2024).
# How the values were obtained:
# MCF7 [1] = assay: Antiproliferative activity against human MCF7 cells assessed as reduction in cell viability incubated for 72 hrs by MTT assay; assay type: functional, cell-based; conditions: MCF7, 72 h
# DLD-1 = assay: Anticancer activity against human DLD-1 cells assessed as reduction in cell viability; assay type: functional, cell-based
# [2] = biological target: Cyclin-dependent kinase inhibitor 1 (p21) (human) (UniProt P38936); assay: Upregulation of p21 gene expression in human HeLa cells assessed fold increase by RT-PCR analysis
# MDA-MB-231 [3] = assay: Anticancer activity against human MDA-MB-231 cells assessed as reduction in cell viability measured after 72 hrs by MTT assay; assay type: functional, cell-based; conditions: MDA-MB-231, 72 h
# MCF7 [4] = assay: Antiproliferative activity against human MCF7 cells assessed as reduction in cell proliferation by CCK-8 assay; assay type: functional, cell-based
# [5] = Anticancer activity against human SK-MEL-128 cells assessed as cell growth inhibition; assay type: functional, cell-based
# DU-145 [6] = assay: Anticancer activity against human DU-145 cells assessed as cell growth inhibition; assay type: functional, cell-based
# HeLa [7] = assay: Antiproliferative activity against human HeLa cells assessed as reduction in cell viability; assay type: functional, cell-based
# Hs-578T = assay: Anticancer activity against human Hs-578T cells assessed as cell growth inhibition by MTT assay; assay type: functional, cell-based
# HCC1937 = assay: Anticancer activity against human HCC1937 cells assessed as reduction in cell growth incubated for 48 hrs by MTT assay; assay type: functional, cell-based; conditions: HCC1937, 48 h
# MDA-MB-468 = assay: Anticancer activity against human MDA-MB-468 cells assessed as reduction in cell viability incubated for 48 hrs by MTT assay; assay type: functional, cell-based; conditions: MDA-MB-468, 48 h
# MDA-MB-231 [8] = assay: Anticancer activity against human MDA-MB-231 cells assessed as reduction in cell viability incubated for 48 hrs by MTT assay; assay type: functional, cell-based; conditions: MDA-MB-231, 48 h
# Caco-2 = assay: Cytotoxicity against human Caco-2 cells assessed as reduction in cell viability incubated for 72 hrs by MTT assay; assay type: functional, cell-based; conditions: Caco-2, 72 h
# MCF7 [9] = assay: Antiproliferative activity against human MCF7 cells assessed as cell growth inhibition; assay type: functional, cell-based
# HeLa [10] = assay: Antitumor activity against human HeLa cells assessed as inhibition of cell growth by MTT assay; assay type: functional, cell-based
# [11] = Cytotoxicity against green monkey COS-7 cells; assay type: toxicity, cell-based; conditions: green monkey (Chlorocebus aethiops)
# K562 [12] = assay: Cytotoxicity against human K562 cells assessed as reduction in cell viability incubated for 72 hrs by MTT assay; assay type: functional, cell-based; conditions: K562, 72 h
# HepG2 [13] = assay: Antiproliferative activity against human HepG2 cells assessed as reduction in cell viability incubated for 48 hrs by MTT assay; assay type: functional, cell-based; conditions: HepG2, 48 h
# SK-OV-3 [14] = assay: Antiproliferative activity against human SK-OV-3 cells assessed as reduction in cell viability by MTT assay; assay type: functional, cell-based
# A549 [15] = assay: Antiproliferative activity against human A549 cells assessed as reduction in cell viability by MTT assay; assay type: functional, cell-based
# HeLa [16] = assay: Antiproliferative activity against human HeLa cells assessed as reduction in cell viability by MTT assay; assay type: functional, cell-based
# DU-145 [17] = assay: Antiproliferative activity against human DU-145 cells assessed as reduction in cell viability by MTT assay; assay type: functional, cell-based
# HepG2 [18] = assay: Antiproliferative activity against human HepG2 cells assessed as reduction in cell viability by MTT assay; assay type: functional, cell-based
# MCF7-DOX = assay: Antiproliferative activity against human MCF7-DOX cells assessed as reduction in cell viability by MTT assay; assay type: functional, cell-based
# [19] = biological target: ALK tyrosine kinase receptor (Homo sapiens, UniProt Q9UM73, G1269A); assay: Inhibition of ALK G1269A mutant (unknown origin)
# Chain of ALK tyrosine kinase receptor (Homo sapiens, UniProt Q9UM73, G1269A) (Q9UM73 19-1620 G1269A limits assumed): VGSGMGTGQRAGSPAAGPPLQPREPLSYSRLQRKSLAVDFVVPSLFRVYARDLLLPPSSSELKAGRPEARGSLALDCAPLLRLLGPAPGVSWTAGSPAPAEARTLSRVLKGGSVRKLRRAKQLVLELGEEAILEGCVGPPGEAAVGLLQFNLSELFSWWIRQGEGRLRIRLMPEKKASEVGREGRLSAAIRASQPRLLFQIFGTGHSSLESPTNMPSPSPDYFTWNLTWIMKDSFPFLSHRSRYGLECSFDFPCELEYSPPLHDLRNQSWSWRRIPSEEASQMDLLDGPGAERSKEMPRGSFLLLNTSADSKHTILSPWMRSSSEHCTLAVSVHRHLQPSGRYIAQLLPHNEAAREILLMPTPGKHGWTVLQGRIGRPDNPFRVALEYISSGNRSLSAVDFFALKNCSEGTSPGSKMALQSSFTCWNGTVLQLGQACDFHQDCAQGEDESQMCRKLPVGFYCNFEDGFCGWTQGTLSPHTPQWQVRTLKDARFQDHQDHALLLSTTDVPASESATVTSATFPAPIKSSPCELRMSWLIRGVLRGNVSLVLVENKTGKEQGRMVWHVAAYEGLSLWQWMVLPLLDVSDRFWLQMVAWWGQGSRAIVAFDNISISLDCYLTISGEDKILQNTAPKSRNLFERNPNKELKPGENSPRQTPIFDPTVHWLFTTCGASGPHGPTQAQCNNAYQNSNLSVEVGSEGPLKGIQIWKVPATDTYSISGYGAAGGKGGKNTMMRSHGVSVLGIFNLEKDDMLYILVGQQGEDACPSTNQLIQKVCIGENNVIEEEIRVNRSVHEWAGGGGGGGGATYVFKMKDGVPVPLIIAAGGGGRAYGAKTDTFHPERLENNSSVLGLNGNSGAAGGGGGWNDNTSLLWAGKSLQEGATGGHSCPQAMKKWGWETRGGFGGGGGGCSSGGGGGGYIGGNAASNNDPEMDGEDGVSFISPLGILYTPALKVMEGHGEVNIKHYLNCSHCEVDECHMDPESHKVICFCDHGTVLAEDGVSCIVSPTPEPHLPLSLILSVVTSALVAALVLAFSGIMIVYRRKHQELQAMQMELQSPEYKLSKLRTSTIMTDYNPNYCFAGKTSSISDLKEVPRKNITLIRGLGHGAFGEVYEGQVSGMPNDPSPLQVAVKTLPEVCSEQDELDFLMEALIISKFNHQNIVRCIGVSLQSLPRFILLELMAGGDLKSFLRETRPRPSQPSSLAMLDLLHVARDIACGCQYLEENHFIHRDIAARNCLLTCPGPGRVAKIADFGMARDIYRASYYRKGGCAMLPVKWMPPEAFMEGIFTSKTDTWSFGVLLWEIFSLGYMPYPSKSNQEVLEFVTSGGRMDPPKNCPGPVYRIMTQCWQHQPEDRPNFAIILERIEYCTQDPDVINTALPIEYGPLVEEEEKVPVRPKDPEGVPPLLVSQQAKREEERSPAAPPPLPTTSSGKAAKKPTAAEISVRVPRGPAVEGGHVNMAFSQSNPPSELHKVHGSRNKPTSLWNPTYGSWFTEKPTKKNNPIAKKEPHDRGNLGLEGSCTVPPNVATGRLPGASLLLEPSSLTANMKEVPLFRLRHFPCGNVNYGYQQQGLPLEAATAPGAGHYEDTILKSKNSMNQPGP
# [20] = biological target: ALK tyrosine kinase receptor (Homo sapiens, UniProt Q9UM73, L1196M); assay: Inhibition of ALK L1196M mutant (unknown origin)
# Chain of ALK tyrosine kinase receptor (Homo sapiens, UniProt Q9UM73, L1196M) (Q9UM73 19-1620 L1196M limits assumed): as the sequence (Q9UM73 19-1620 G1269A limits assumed) above, with L1178M, A1251G counted along it
# [21] = biological target: ALK tyrosine kinase receptor (Homo sapiens, UniProt Q9UM73, G1202R); assay: Inhibition of ALK G1202R mutant (unknown origin)
# Chain of ALK tyrosine kinase receptor (Homo sapiens, UniProt Q9UM73, G1202R) (Q9UM73 19-1620 G1202R limits assumed): as the sequence (Q9UM73 19-1620 G1269A limits assumed) above, with G1184R, A1251G counted along it
# MDA-MB-231 [22] = assay: Cytotoxicity against human MDA-MB-231 cells assessed as cell growth inhibition by SRB assay; assay type: functional, cell-based
# K562 [23] = assay: Cytotoxicity against human K562 cells assessed as cell growth inhibition incubated for 72 hrs by MTT colorimetric assay; assay type: functional, cell-based; conditions: K562, 72 h
# HeLa [24] = assay: Cytotoxicity against human HeLa cells assessed as cell growth inhibition incubated for 72 hrs by MTT colorimetric assay; assay type: functional, cell-based
# A549 [25] = assay: Cytotoxicity against human A549 cells assessed as cell growth inhibition incubated for 72 hrs by MTT colorimetric assay; assay type: functional, cell-based; conditions: A549, 72 h
# MDA-MB-231 [26] = assay: Cytotoxicity against human MDA-MB-231 cells assessed as cell growth inhibition incubated for 72 hrs by MTT colorimetric assay; assay type: functional, cell-based; conditions: MDA-MB-231, 72 h
# OVCAR-3 = assay: Antiproliferative activity against human OVCAR-3 cells assessed as cell viability measured after 72 hrs incubation by MTT assay; assay type: functional, cell-based; conditions: OVCAR-3, 72 h
# HepG2 [27] = assay: Antiproliferative activity against human HepG2 cells assessed as reduction in cell viability; assay type: functional, cell-based
# Hep 3B2 = assay: Antiproliferative activity against human Hep3B cells assessed as inhibition of cell viability after 72 hrs by CCK-8 assay; assay type: functional, cell-based
# A2780 = assay: Antiproliferative activity against human A2780 cells assessed as reduction in cell viability incubated for 48 hrs by MTT assay; assay type: functional, cell-based; conditions: A2780, 48 h
# BXPC-3 = assay: Growth inhibition of human BXPC-3 cells assessed as reduction in cell viability measured after 3 days by CCK-8 assay; assay type: functional; conditions: BXPC-3, 72 h, time 3 day
# T-24 = assay: Growth inhibition of human T24 cells assessed as reduction in cell viability measured after 3 days by CCK-8 assay; assay type: functional; conditions: T-24, 72 h, time 3 day
# AGS = assay: Growth inhibition of human AGS cells assessed as reduction in cell viability measured after 3 days by CCK-8 assay; assay type: functional; conditions: 72 h, time 3 day
# SK-OV-3 [28] = assay: Growth inhibition of human SK-OV-3 cells assessed as reduction in cell viability measured after 3 days by CCK-8 assay; assay type: functional; conditions: SK-OV-3, 72 h, time 3 day
# OVCAR-8 = assay: Growth inhibition of human OVCAR-8 cells assessed as reduction in cell viability measured after 3 days by CCK-8 assay; assay type: functional; conditions: OVCAR-8, 72 h, time 3 day
# SNU1 = assay: Growth inhibition of human SNU1 cells assessed as reduction in cell viability measured after 3 days by CCK-8 assay; assay type: functional; conditions: SNU1, 72 h, time 3 day
# WiDr = assay: Growth inhibition of human WiDr cells assessed as reduction in cell viability measured after 3 days by CCK-8 assay; assay type: functional; conditions: 72 h, time 3 day
# SN12C = assay: Growth inhibition of human SN12C cells assessed as reduction in cell viability measured after 3 days by CCK-8 assay; assay type: functional; conditions: 72 h, time 3 day
# [29] = tested on: KATO III stomach cancer cell line; assay: Growth inhibition of human KATO III stomach cancer cell line assessed as reduction in cell viability measured after 3 days by CCK-8 assay; assay type: functional; conditions: 72 h, time 3 day
# PANC-1 = assay: Growth inhibition of human PANC-1 cells assessed as reduction in cell viability measured after 3 days by CCK-8 assay; assay type: functional; conditions: PANC-1, 72 h, time 3 day
# HeLa [30] = assay: Growth inhibition of human HeLa cells assessed as reduction in cell viability measured after 3 days by CCK-8 assay; assay type: functional; conditions: 72 h, time 3 day
# K562 [31] = assay: Growth inhibition of human K562 cells assessed as reduction in cell viability measured after 3 days by CCK-8 assay; assay type: functional; conditions: K562, 72 h, time 3 day
# HepG2 [32] = assay: Growth inhibition of human HepG2 cells assessed as reduction in cell viability measured after 3 days by CCK-8 assay; assay type: functional; conditions: HepG2, 72 h, time 3 day
smiles,measurement,setting,value
Cc1cc(=O)oc2cc(OCC(=O)Nc3ccc(C(=O)/C=C/c4ccco4)cc3)ccc12,IC50,MCF7 [1],9.62 µg/mL
COc1ccc(/C(C)=N/Nc2ncc(C(=O)c3cc4ccccc4oc3=O)s2)cc1,EC50,DLD-1,5.79 µM
CCOC(=O)c1sc(N/N=C(\C)c2cc3ccccc3oc2=O)nc1C,fold change (FC),[2],2.3
COC(=O)c1cc2cc(-c3nc4cc(C)ccn4c3NC(C)(C)C)cc(C(C)C)c2oc1=O,IC50,MDA-MB-231 [3],14.1 µM
Cc1c(Cc2ccccc2)c(=O)oc2cc(OS(N)(=O)=O)ccc12,IC50,MCF7 [4],0.032 µM
Nn1c(Cc2ccc(Cl)c(Cl)c2)nn(CC(=O)NNC(=O)c2cc3cc(Cl)ccc3oc2=O)c1=O,IC50,[5],12.3 µg/mL
same,IC50,DU-145 [6],3.7 µg/mL
CCOC(=O)c1sc(N/N=C(\C)c2cc3cc(Br)ccc3oc2=O)nc1C,IC50,HeLa [7],0.009 µM
O=c1oc2ccccc2c(O)c1C(c1ccc(O)cc1O)c1c(O)c2ccccc2oc1=O,IC50,Hs-578T,25.7 µM
same,IC50,HCC1937,20.2 µM
same,IC50,MDA-MB-468,15.2 µM
same,IC50,MDA-MB-231 [8],25.3 µM
COc1ccccc1-c1cn(Cc2cc(=O)oc3cc(O)c(O)cc23)nn1,IC50,Caco-2,9.7 µM
O=C1CCn2cc(nn2)CCOc2ccccc2C(C(=O)c2cc3ccccc3oc2=O)N1 (centres undefined),IC50,MCF7 [9],49 µM
O=c1oc2ccccc2cc1-c1csc(N/N=C/c2c3ccccc3c(Cl)c3ccccc23)n1,IC50,HeLa [10],1.29 µM
same,IC50,[11],1.66 µM
COc1cccc(-c2cn(Cc3cc(=O)oc4cc(O)c(O)cc34)nn2)c1,IC50,K562 [12],17.9 µM
C/C(=N\NC1=NCC(=O)S1)c1ccc(NS(=O)(=O)c2ccc3oc(=O)ccc3c2)cc1,IC50,HepG2 [13],5.03 µM
Cc1ccc2c(c1)/C(=N\O)C(=O)N2CCOCCn1cc(COc2ccc3c(C)cc(=O)oc3c2)nn1,IC50,SK-OV-3 [14],18 µM
same,IC50,A549 [15],18.7 µM
same,IC50,HeLa [16],21.3 µM
same,IC50,DU-145 [17],31.5 µM
same,IC50,HepG2 [18],19.9 µM
same,IC50,MCF7-DOX,15.5 µM
COc1ccc2nc(-c3cc4ccc(N5CCOCC5)cc4oc3=O)sc2c1,IC50,[19],0.3 µM
same,IC50,[20],0.27 µM
same,IC50,[21],0.59 µM
COc1ccc(-n2nc(C)n(-n3c(-c4cc5ccccc5oc4=O)cs/c3=N\c3ccc(Cl)cc3)c2=O)cc1,IC50,MDA-MB-231 [22],0.16 µM
same,IC50,K562 [23],0.31 µM
same,IC50,HeLa [24],0.25 µM
same,IC50,A549 [25],0.17 µM
same,IC50,MDA-MB-231 [26],0.16 µM
CCN(CC)c1ccc2cc(C(=O)N3CCN(CCC[C@H]4O[C@@H]5O[C@@]6(C)CC[C@H]7[C@H](C)CC[C@@H]([C@H]4C)[C@@]57OO6)CC3)c(=O)oc2c1,IC50,OVCAR-3,4.6 µM
same,IC50,HepG2 [27],3.05 µM
same,IC50,Hep 3B2,3.76 µM
same,IC50,A2780,5.82 µM
CCN(CC)c1ccc2cc(-c3nc4ccccc4n3C)c(=O)oc2c1,GI50,BXPC-3,< 0.41 µM
same,GI50,T-24,< 0.41 µM
same,GI50,AGS,< 0.41 µM
same,GI50,SK-OV-3 [28],< 0.41 µM
same,GI50,OVCAR-8,< 0.41 µM
same,GI50,SNU1,< 0.41 µM
same,GI50,WiDr,< 0.41 µM
same,GI50,SN12C,< 0.41 µM
same,GI50,[29],< 0.41 µM
same,GI50,PANC-1,< 0.41 µM
same,GI50,HeLa [30],< 0.41 µM
same,GI50,K562 [31],< 0.41 µM
same,GI50,HepG2 [32],< 0.41 µM
